Experimental data as given in PubChem BioAssay (NCI).
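Results reflect a 48-hour exposure of cells in 96-well plates to compound at five concentrations. The concentration for 50% growth inhibition is given as GI50. The concentration for full growth arrest is given as TGI.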

How the values were obtained:
Assay in all cases: inhibition of tumour cell growth, NCI panel, 48 h
[1] = tested on: OVCAR-5 ovarian
[2] = tested on: A498 renal
[3] = tested on: RXF 393 renal
[4] = tested on: HCC-2998 colon
[5] = tested on: SK-MEL-28 melanoma
[6] = tested on: ACHN renal
[7] = tested on: TK-10 renal
[8] = tested on: OVCAR-8 ovarian
[9] = tested on: SK-MEL-5 melanoma
[10] = tested on: EKVX NSCLC
[11] = tested on: SF-268 CNS
[12] = tested on: MALME-3M melanoma
[13] = tested on: OVCAR-4 ovarian
[14] = tested on: K-562 leukemia
[15] = tested on: RPMI-8226 leukemia
[16] = tested on: BT-549 breast
[17] = tested on: SN12C renal
[18] = tested on: SNB-19 CNS
[19] = tested on: UACC-257 melanoma
[20] = tested on: CAKI-1 renal
[21] = tested on: SF-295 CNS
[22] = tested on: HOP-62 NSCLC
[23] = tested on: LOX IMVI melanoma
[24] = tested on: MDA-N
[25] = tested on: OVCAR-3 ovarian
[26] = tested on: SNB-75 CNS
[27] = tested on: SW-620 colon
[28] = tested on: SR leukemia
[29] = tested on: HCT-15 colon
[30] = tested on: DU-145 prostate
[31] = tested on: MDA-MB-231 breast
[32] = tested on: MOLT-4 leukemia
[33] = tested on: MCF7 breast
[34] = tested on: U251 CNS
[35] = tested on: COLO 205 colon
[36] = tested on: KM12 colon
[37] = tested on: UACC-62 melanoma
[38] = tested on: NCI-H522 lung
[39] = tested on: HCT-116 colon
[40] = tested on: CCRF-CEM leukemia
[41] = tested on: SK-OV-3 ovarian
[42] = tested on: NCI/ADR-RES ovarian
[43] = tested on: UO-31 renal
[44] = tested on: NCI-H23 lung
[45] = tested on: SK-MEL-2 melanoma
[46] = tested on: SF-539 CNS
[47] = tested on: IGROV1 ovarian
[48] = tested on: A549 NSCLC
[49] = tested on: MDA-MB-435
[50] = tested on: NCI-H460 lung
[51] = tested on: PC-3 prostate
[52] = tested on: M14 melanoma
[53] = tested on: NCI-H226 lung
[54] = tested on: 786-0 renal
[55] = tested on: HT29 colon
[56] = tested on: T-47D breast
[57] = tested on: HS 578T breast
[58] = tested on: HOP-92 NSCLC
[59] = tested on: HL-60(TB) leukemia

Compound: CSC(=S)OC1C(CO[Si](C)(C)C(C)(C)C)OC2OC(C)(C)OC21 (stereo not drawn)
- TGI [1]: 37.6 µM
- TGI [2]: 43.4 µM
- TGI [3]: 37.5 µM
- TGI [4]: 49 µM
- TGI [5]: > 100 µM
- TGI [6]: 31.3 µM
- TGI [7]: 49 µM
- TGI [8]: 95.8 µM
- TGI [9]: 30.4 µM
- TGI [10]: 60.1 µM
- TGI [11]: 45.9 µM
- TGI [12]: 32.4 µM
- TGI [13]: > 100 µM
- TGI [14]: 31 µM
- TGI [15]: 36.5 µM
- TGI [16]: 67 µM
- TGI [17]: 37.1 µM
- TGI [18]: 47 µM
- TGI [19]: 34.8 µM
- TGI [20]: > 100 µM
- TGI [21]: 32.2 µM
- TGI [22]: 34.4 µM
- TGI [23]: 32 µM
- TGI [24]: > 100 µM
- TGI [25]: 31.3 µM
- TGI [26]: > 100 µM
- TGI [27]: 31.9 µM
- TGI [28]: 30.4 µM
- TGI [29]: 35.3 µM
- TGI [30]: > 100 µM
- TGI [31]: 33.9 µM
- TGI [32]: 30.5 µM
- TGI [33]: 29.8 µM
- TGI [34]: 31.8 µM
- TGI [35]: 36.1 µM
- TGI [36]: 30.4 µM
- TGI [37]: 36.1 µM
- TGI [38]: 31.3 µM
- TGI [39]: 36.6 µM
- TGI [40]: 34 µM
- TGI [41]: 41.5 µM
- TGI [42]: 36.2 µM
- TGI [43]: 32 µM
- TGI [44]: 44.3 µM
- TGI [45]: 28.5 µM
- TGI [46]: 43.5 µM
- TGI [47]: 53.6 µM
- TGI [48]: 78.6 µM
- TGI [49]: > 100 µM
- TGI [50]: 32.8 µM
- TGI [51]: 38.4 µM
- TGI [52]: > 100 µM
- TGI [53]: 29.7 µM
- TGI [54]: 42 µM
- TGI [55]: 24.7 µM

Compound: O=Cc1ccc(O)c2ncccc12
- GI50 [1]: 4.65 µM
- TGI [1]: 65.5 µM
- GI50 [2]: 25.4 µM
- TGI [2]: > 63.9 µM
- GI50 [3]: 10.4 µM
- TGI [3]: 33.8 µM
- GI50 [4]: 11.8 µM
- TGI [4]: 41.8 µM
- GI50 [5]: 7.14 µM
- TGI [5]: > 53.3 µM
- GI50 [6]: 12.9 µM
- TGI [6]: > 100 µM
- GI50 [7]: 17.4 µM
- TGI [7]: 52.5 µM
- GI50 [8]: 3.28 µM
- TGI [8]: > 100 µM
- GI50 [9]: 2.4 µM
- TGI [9]: 9.45 µM
- GI50 [56]: 2.56 µM
- TGI [56]: > 76 µM
- GI50 [10]: 3.01 µM
- TGI [10]: 23.9 µM
- GI50 [11]: 2.65 µM
- TGI [11]: > 100 µM
- GI50 [12]: 3.62 µM
- TGI [12]: 30.4 µM
- GI50 [13]: 2.91 µM
- TGI [13]: > 100 µM
- GI50 [14]: 3.29 µM
- TGI [14]: > 100 µM
- GI50 [15]: 2.2 µM
- TGI [15]: 15.8 µM
- GI50 [16]: 3.59 µM
- TGI [16]: > 71.8 µM
- GI50 [57]: 7.05 µM
- TGI [57]: > 53.7 µM
- GI50 [17]: 3.81 µM
- TGI [17]: > 100 µM
- GI50 [18]: 6.03 µM
- TGI [18]: > 100 µM
- GI50 [19]: 3.45 µM
- TGI [19]: > 53.1 µM
- GI50 [58]: 5.01 µM
- TGI [58]: > 73.5 µM
- GI50 [20]: 7.29 µM
- TGI [20]: 35.4 µM
- GI50 [21]: 2.12 µM
- TGI [21]: 13.1 µM
- GI50 [22]: 5.59 µM
- TGI [22]: 45.3 µM
- GI50 [23]: 2.31 µM
- TGI [23]: > 54.5 µM
- GI50 [25]: 1.4 µM
- TGI [25]: 6.85 µM
- GI50 [26]: 16.9 µM
- TGI [26]: > 82.4 µM
- GI50 [27]: 3.91 µM
- TGI [27]: 16.6 µM
- GI50 [28]: 0.858 µM
- TGI [28]: > 31.8 µM
- GI50 [29]: 1.29 µM
- TGI [29]: 18.3 µM
- GI50 [30]: 7.28 µM
- TGI [30]: 32.1 µM
- GI50 [31]: 4.21 µM
- TGI [31]: > 100 µM
- TGI [32]: > 38.8 µM
- GI50 [33]: 2.45 µM
- TGI [33]: 8.11 µM
- GI50 [34]: 2.4 µM
- TGI [34]: 23.3 µM
- GI50 [35]: 3.71 µM
- TGI [35]: 17.5 µM
- GI50 [36]: 5.65 µM
- TGI [36]: 40.5 µM
- GI50 [37]: 3.58 µM
- TGI [37]: 27.6 µM
- GI50 [38]: 25.5 µM
- TGI [38]: 90.8 µM
- GI50 [39]: 2.54 µM
- TGI [39]: 11.7 µM
- GI50 [40]: 0.952 µM
- TGI [40]: > 32 µM
- GI50 [41]: 10.8 µM
- TGI [41]: 39.3 µM
- GI50 [42]: 2.2 µM
- TGI [42]: > 29.4 µM
- TGI [59]: > 100 µM
- GI50 [43]: 4.96 µM
- TGI [43]: 36.9 µM
- GI50 [44]: 3.42 µM
- TGI [44]: > 55.8 µM
- GI50 [45]: 25.8 µM
- TGI [45]: > 96 µM
- GI50 [46]: 3.33 µM
- TGI [46]: 19.3 µM
- GI50 [47]: 3.32 µM
- TGI [47]: 16.8 µM
- GI50 [48]: 28.1 µM
- TGI [48]: > 100 µM
- GI50 [49]: 3.83 µM
- TGI [49]: 27.8 µM
- GI50 [50]: 3.47 µM
- TGI [50]: 17.2 µM
- GI50 [51]: 4.01 µM
- TGI [51]: > 46.6 µM
- GI50 [52]: 2.99 µM
- TGI [52]: 26.1 µM
- GI50 [53]: 4.88 µM
- TGI [53]: > 79.1 µM
- GI50 [54]: 13.4 µM
- TGI [54]: 73.2 µM
- GI50 [55]: 7.46 µM
- TGI [55]: 34.7 µM

Compound: CCCCCCCCNC(=S)/N=C/c1c(O)c2ccccc2oc1=O
- TGI [1]: 28.1 µM
- TGI [2]: 32.2 µM
- TGI [3]: 34.8 µM
- TGI [4]: 26.7 µM
- TGI [5]: 31.1 µM
- TGI [6]: 29.5 µM
- TGI [8]: 52.4 µM
- TGI [9]: 30.4 µM
- TGI [56]: > 100 µM
- TGI [10]: 66.9 µM
- TGI [13]: 29.4 µM
- TGI [14]: 40.1 µM
- TGI [17]: 38.7 µM
- TGI [19]: 40.9 µM
- TGI [21]: 34 µM
- TGI [22]: 32.2 µM
- TGI [23]: 26 µM
- TGI [24]: 34.3 µM
- TGI [25]: 29.1 µM
- TGI [26]: 34.2 µM
- TGI [29]: 28.4 µM
- TGI [30]: 33.6 µM
- TGI [31]: 32.4 µM
- TGI [32]: 33.7 µM
- TGI [35]: 32.3 µM
- TGI [36]: 29.1 µM
- TGI [37]: 28.6 µM
- TGI [38]: 22.4 µM
- TGI [39]: 31 µM
- TGI [40]: 30.9 µM
- TGI [42]: 47.4 µM
- TGI [44]: 39.7 µM
- TGI [45]: 48 µM
- TGI [46]: 36.6 µM
- TGI [48]: 35.2 µM
- TGI [50]: 30.3 µM
- TGI [51]: 28.5 µM
- TGI [52]: 34.6 µM
- TGI [53]: 51.7 µM
